In PubChem BioAssay (NCI):
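A five-concentration, 48-hour dose response in 96-well plates underlies each endpoint, interpolated linearly between surrounding concentrations. GI50 is the concentration that inhibits growth by half. TGI: total growth inhibition.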

Key:
Assay in all cases: NCI-60 cell line screen, 48 h
[1] = test system: 786-0 renal
[2] = test system: A498 renal
[3] = test system: A549 NSCLC
[4] = test system: ACHN renal
[5] = test system: BT-549 breast
[6] = test system: CAKI-1 renal
[7] = test system: CCRF-CEM leukemia
[8] = test system: COLO 205 colon
[9] = test system: DU-145 prostate
[10] = test system: HCC-2998 colon
[11] = test system: HCT-116 colon
[12] = test system: HCT-15 colon
[13] = test system: HL-60(TB) leukemia
[14] = test system: HOP-62 NSCLC
[15] = test system: HOP-92 NSCLC
[16] = test system: HS 578T breast
[17] = test system: HT29 colon
[18] = test system: IGROV1 ovarian
[19] = test system: K-562 leukemia
[20] = test system: KM12 colon
[21] = test system: LOX IMVI melanoma
[22] = test system: M14 melanoma
[23] = test system: MALME-3M melanoma
[24] = test system: MCF7 breast
[25] = test system: MDA-MB-231 breast
[26] = test system: MDA-MB-435
[27] = test system: MOLT-4 leukemia
[28] = test system: NCI-H226 lung
[29] = test system: NCI-H23 lung
[30] = test system: NCI-H460 lung
[31] = test system: NCI-H522 lung
[32] = test system: NCI/ADR-RES ovarian
[33] = test system: OVCAR-3 ovarian
[34] = test system: OVCAR-4 ovarian
[35] = test system: OVCAR-5 ovarian
[36] = test system: OVCAR-8 ovarian
[37] = test system: PC-3 prostate
[38] = test system: RPMI-8226 leukemia
[39] = test system: SF-268 CNS
[40] = test system: SF-295 CNS
[41] = test system: SF-539 CNS
[42] = test system: SK-MEL-2 melanoma
[43] = test system: SK-MEL-28 melanoma
[44] = test system: SK-MEL-5 melanoma
[45] = test system: SK-OV-3 ovarian
[46] = test system: SN12C renal
[47] = test system: SNB-19 CNS
[48] = test system: SNB-75 CNS
[49] = test system: SR leukemia
[50] = test system: SW-620 colon
[51] = test system: T-47D breast
[52] = test system: TK-10 renal
[53] = test system: U251 CNS
[54] = test system: UACC-257 melanoma
[55] = test system: UACC-62 melanoma
[56] = test system: UO-31 renal

Cc1sc2ncnc(Sc3nc4ccccc4[nH]3)c2c1C
GI50 [1]: 37.3 µM | TGI [1]: > 100 µM | GI50 [2]: 12.2 µM | TGI [2]: 52.9 µM | GI50 [3]: 21.5 µM | TGI [3]: 73 µM | GI50 [4]: 24.4 µM | TGI [4]: > 100 µM | GI50 [5]: 27.2 µM | TGI [5]: > 100 µM | GI50 [6]: 25.4 µM | TGI [6]: > 100 µM | GI50 [7]: 21.1 µM | TGI [7]: > 100 µM | GI50 [8]: 33.5 µM | TGI [8]: > 100 µM | GI50 [9]: 20.8 µM | TGI [9]: 72.4 µM | GI50 [10]: 50.4 µM | TGI [10]: > 100 µM | GI50 [11]: 24 µM | TGI [11]: > 100 µM | GI50 [12]: 28.2 µM | TGI [12]: > 100 µM | GI50 [13]: 22.7 µM | TGI [13]: 59.4 µM | GI50 [14]: 18.7 µM | TGI [14]: 52 µM | GI50 [15]: 13.8 µM | TGI [15]: 63.8 µM | GI50 [16]: 18.4 µM | TGI [16]: 67.6 µM | GI50 [17]: 21.9 µM | TGI [17]: 53.6 µM | GI50 [18]: 33.2 µM | TGI [18]: > 100 µM | GI50 [19]: 23.4 µM | TGI [19]: 97.3 µM | GI50 [20]: 27.2 µM | TGI [20]: > 100 µM | GI50 [21]: 21.2 µM | TGI [21]: > 100 µM | GI50 [22]: 41.1 µM | TGI [22]: > 100 µM | GI50 [23]: 15.6 µM | TGI [23]: 80.1 µM | GI50 [24]: 13.6 µM | TGI [24]: 67 µM | GI50 [25]: 17.4 µM | TGI [25]: 94.3 µM | GI50 [26]: 26.3 µM | TGI [26]: > 100 µM | GI50 [27]: 22.2 µM | TGI [27]: 88.7 µM | GI50 [28]: 27.2 µM | TGI [28]: > 100 µM | GI50 [29]: 30.4 µM | TGI [29]: > 100 µM | GI50 [30]: 27.6 µM | TGI [30]: > 100 µM | GI50 [31]: 21.5 µM | TGI [31]: 61.2 µM | GI50 [32]: 29.5 µM | TGI [32]: > 100 µM | GI50 [33]: 23.3 µM | TGI [33]: 60 µM | GI50 [34]: 20.6 µM | TGI [34]: 66.9 µM | GI50 [35]: 39.7 µM | TGI [35]: > 100 µM | GI50 [36]: 20.7 µM | TGI [36]: 62.7 µM | GI50 [37]: 23.9 µM | TGI [37]: > 100 µM | GI50 [38]: 19.5 µM | TGI [38]: > 100 µM | GI50 [39]: 20.6 µM | TGI [39]: 62.1 µM | GI50 [40]: 55.8 µM | TGI [40]: > 100 µM | GI50 [41]: 38.4 µM | TGI [41]: > 100 µM | GI50 [42]: 33.5 µM | TGI [42]: 99 µM | GI50 [43]: 23.4 µM | TGI [43]: 74.7 µM | GI50 [44]: 22 µM | TGI [44]: > 100 µM | GI50 [45]: 24.3 µM | TGI [45]: 65.6 µM | GI50 [46]: 32.5 µM | TGI [46]: > 100 µM | GI50 [47]: 47 µM | TGI [47]: > 100 µM | GI50 [48]: 1.52 µM | TGI [48]: 27 µM | GI50 [49]: 10.6 µM | TGI [49]: 23 µM | GI50 [50]: 42.3 µM | TGI [50]: > 100 µM | GI50 [51]: 18.1 µM | TGI [51]: 62.9 µM | GI50 [52]: 28.5 µM | TGI [52]: 62.4 µM | GI50 [53]: 18.8 µM | TGI [53]: 43.2 µM | GI50 [54]: 24.7 µM | TGI [54]: 98.9 µM | GI50 [55]: 17.3 µM | TGI [55]: > 100 µM | GI50 [56]: 14.7 µM | TGI [56]: 96.7 µM
